Measurements as given in patent US12384771B2, “Pleuromutilin derivative containing thiazole-pyridine benzyl quaternary ammonium salt side chain and preparation method and use thereof” (SHAANXI UNIVERSITY OF SCIENCE AND TECHNOLOGY, priority 2022, dated 2025).
Counter-ions that a name gives are not always drawn.

Assays:
[1] = test system: vancomycin-resistant Enterococcus faecalis (VRE) 18-94; test: MIC, clinical drug-resistant bacteria; assay type: cell-based; conditions: VRE 18-94; read-out: Minimum inhibitory concentration against clinical drug-resistant bacteria
Experimental: (§1) The minimum inhibitory concentration (MIC) of the pleuromutilin derivative containing thiazole-pyridine benzyl quaternary ammonium salt side chain was tested with moxifloxacin as a positive control (purchased from Shanghai Macklin Biochemical Technology Co., Ltd.) using a microbroth dilution method. At the same time, the pleuromutilin derivative containing thiazole-pyridine benzyl quaternary ammonium salt side chain of the invention was compared with the marketed pleuromutilin antibiotics, such as retapamulin (purchased from Nanjing Chemlin Chemical Industry Co., Ltd.), tiamulin (purchased from Shanghai Yuanye Bio-Technology Co., Ltd) and valnemulin (purchased from Shanghai Acmec Biochemical Co., Ltd), in order to screen out pleuromutilin derivatives with better activity.
(§2) Clinical resistant bacteria include multidrug-resistant Pseudomonas aeruginosa (MDR-PA) 18-993, 18-756 and 18-126, multidrug-resistant Klebsiella pneumoniae (MDR-KP) 18-893, 18-754 and 18-1482, methicillin-resistant Staphylococcus aureus (MRSA) 18-171, 18-209 and 18-575, vancomycin-resistant Enterococcus faecalis (VRE) 18-94, 18-80 and 18-507, and carbapenem-resistant Acinetobacter baumannii (CR-AB) 18-184, 18-560 and 18-882, all the clinical drug-resistant strains were from Huashan Hospital, Fudan University.

[2] = test system: vancomycin-resistant Enterococcus faecalis (VRE) 18-80; test: MIC, clinical drug-resistant bacteria; assay type: cell-based; conditions: VRE 18-80; read-out: Minimum inhibitory concentration against clinical drug-resistant bacteria
Experimental: as §1, §2

[3] = test system: vancomycin-resistant Enterococcus faecalis (VRE) 18-507; test: MIC, clinical drug-resistant bacteria; assay type: cell-based; conditions: VRE 18-507; read-out: Minimum inhibitory concentration against clinical drug-resistant bacteria
Experimental: as §1, §2

[4] = test system: multidrug-resistant Pseudomonas aeruginosa (MDR-PA) 18-126; test: MIC, clinical drug-resistant bacteria; assay type: cell-based; conditions: MDR-PA 18-126, read-out: Minimum inhibitory concentration against clinical drug-resistant bacteria
Experimental: as §1, §2

[5] = test system: carbapenem-resistant Acinetobacter baumannii (CR-AB) 18-560; test: MIC, clinical drug-resistant bacteria; assay type: cell-based; conditions: CR-AB 18-560, read-out: Minimum inhibitory concentration against clinical drug-resistant bacteria
Experimental: as §1, §2

[6] = test system: methicillin-resistant Staphylococcus aureus (MRSA) 18-209; test: MIC, clinical drug-resistant bacteria; assay type: cell-based; conditions: MRSA 18-209, read-out: Minimum inhibitory concentration against clinical drug-resistant bacteria
Experimental: as §1, §2

[7] = test system: multidrug-resistant Klebsiella pneumoniae (MDR-KP) 18-893; test: MIC, clinical drug-resistant bacteria; assay type: cell-based; conditions: MDR-KP 18-893, read-out: Minimum inhibitory concentration against clinical drug-resistant bacteria
Experimental: as §1, §2

[8] = test system: multidrug-resistant Pseudomonas aeruginosa (MDR-PA) 18-756; test: MIC, clinical drug-resistant bacteria; assay type: cell-based; conditions: MDR-PA 18-756, read-out: Minimum inhibitory concentration against clinical drug-resistant bacteria
Experimental: as §1, §2

[9] = test system: multidrug-resistant Pseudomonas aeruginosa (MDR-PA) 18-993; test: MIC, clinical drug-resistant bacteria; assay type: cell-based; conditions: MDR-PA 18-993, read-out: Minimum inhibitory concentration against clinical drug-resistant bacteria
Experimental: as §1, §2

[10] = test system: methicillin-resistant Staphylococcus aureus (MRSA) 18-171; test: MIC, clinical drug-resistant bacteria; assay type: cell-based; conditions: MRSA 18-171, read-out: Minimum inhibitory concentration against clinical drug-resistant bacteria
Experimental: as §1, §2

[11] = test system: methicillin-resistant Staphylococcus aureus (MRSA) 18-575; test: MIC, clinical drug-resistant bacteria; assay type: cell-based; conditions: MRSA 18-575, read-out: Minimum inhibitory concentration against clinical drug-resistant bacteria
Experimental: as §1, §2

[12] = Determination of solubility of compounds (HPLC); conditions: thermodynamic from solid
Experimental: Experimental method: representative compounds 2, 4 and 7 were selected for solubility determination, and retapamulin hydrochloride was used as a control. 1 mg of each sample was taken and quantitatively dissolved in a 10 mL volumetric flask, and the absorption peak area was measured by a high-performance liquid chromatography; then, the saturated solutions of the representative compounds 2, 4 and 7 and the control drug retapamulin were diluted 10-fold, and the absorption peak area was determined by HPLC; their respective solubility was obtained by calculating the absorption peak area.
The experimental instrument was Shimadzu LC-16, the chromatographic column was Hypersil C18 ODS (4.6×250 mm×5 μm), the flow rate was 1.0 mL/min, the detection wavelength was 300 nm, and the mobile phase was 0.05 mol/L of aqueous acetic acid solution:acetonitrile=30:70.

[13] = test system: Escherichia coli CMCC 44103; test: MIC, microbroth dilution, standard strains; assay type: cell-based; conditions: CMCC44103, CMCC 44103, read-out: Minimum inhibitory concentration
How it was run: (§3)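 MIC read as the lowest concentration inhibiting growth in a microbroth dilution series. Moxifloxacin serves as the reference comparator.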

[14] = test system: Escherichia coli ATCC 25922; test: MIC, microbroth dilution, standard strains; assay type: cell-based; conditions: ATCC25922, ATCC 25922, read-out: Minimum inhibitory concentration
How it was run: as §3

[15] = test system: Staphylococcus epidermidis ATCC 12228; test: MIC, microbroth dilution, standard strains; assay type: cell-based; conditions: ATCC12228, ATCC 12228, read-out: Minimum inhibitory concentration
How it was run: as §3

Salmonella ATCC 14028 = test: MIC, microbroth dilution, standard strains; assay type: cell-based; conditions: ATCC14028, ATCC 14028, read-out: Minimum inhibitory concentration
How it was run: as §3

[16] = test system: Acinetobacter baumannii ATCC 19606; test: MIC, microbroth dilution, standard strains; assay type: cell-based; conditions: ATCC19606, ATCC 19606, read-out: Minimum inhibitory concentration
How it was run: as §3

[17] = test system: Staphylococcus aureus ATCC 29213; test: MIC, microbroth dilution, standard strains; assay type: cell-based; conditions: ATCC29213, ATCC 29213, read-out: Minimum inhibitory concentration
How it was run: as §3

[18] = test system: methicillin-resistant Staphylococcus aureus ATCC 33591; test: MIC, microbroth dilution, standard strains; assay type: cell-based; conditions: ATCC33591, ATCC 33591, read-out: Minimum inhibitory concentration
How it was run: as §3

[19] = test system: Staphylococcus aureus ATCC 25923; test: MIC, microbroth dilution, standard strains; assay type: cell-based; conditions: ATCC25923, ATCC 25923, read-out: Minimum inhibitory concentration
How it was run: as §3

MIC [1]: 64 µg/mL
MIC [2]: 8 µg/mL
MIC [3]: 64 µg/mL
MIC [4]: 8 µg/mL
MIC [5]: 64 µg/mL
MIC [6]: 16 µg/mL
MIC [7]: 16 µg/mL
MIC [8]: 32 µg/mL
MIC [9]: 32 µg/mL
MIC [10]: 64 µg/mL
MIC [11]: 64 µg/mL
solubility ([12]; organic solvent or mixture): 11300 µg/mL
solubility ([12]; pH 1.5, simulated gastric fluid): 3450 µg/mL
solubility ([12]; pH 7, water): 2540 µg/mL
MIC [13]: 0.5 µg/mL
MIC [14]: 1 µg/mL
MIC [15]: 2 µg/mL
MIC (Salmonella ATCC 14028): 2 µg/mL
MIC [16]: 2 µg/mL
MIC [17]: 0.125 µg/mL
MIC [18]: 1 µg/mL
MIC [19]: 0.5 µg/mL
Structure (SMILES): C=C[C@]1(C)C[C@@H](OC(=O)CSc2nc(-c3cc[n+](Cc4ccc([N+](=O)[O-])cc4)cc3)cs2)[C@]2(C)[C@H](C)CC[C@]3(CCC(=O)[C@H]32)[C@@H](C)[C@@H]1O [Compound 7, 1-(4-(nitro)benzyl)-4-(2-(8-hydroxy-4,7,9,12-tetramethyl-3-oxo-7-vinyldecahydro-4,9a-propancyclopent[8]cyclen-5-yl)oxy)-2-oxoethyl)thiazol-4-yl)pyridyl bromide salt]
